Data taken from patent publication US20050250742A1 (Pfizer Inc., priority 2004, published 2005).

Key:
[1] = target: T1, PIN1-CD (catalytic PIN1 domain, devoid of the PIN1 WW domain) (Homo sapiens, UniProt Q13526); test: Dissociation constant (Kd) with PIN1 catalytic domain; type: binding; conditions: peptide containing the catalytic PIN1 domain
T1 construct: PIN1 peptide containing the catalytic peptidyl-prolyl isomerase domain but devoid of the PIN1 WW domain
Source text: (§1) In Table 1, the Ki data reported under the PIN1—CD heading corresponds to testing with PIN1 peptide containing the catalytic peptidyl-prolyl isomerase domain but devoid of the PIN1 WW domain. Similarly, the dissociation constant (Kd) data under PIN1-CD refers to testing with a peptide containing the catalytic PIN1 domain but devoid of the PIN1 WW domain.

[2] = target: T2, PIN1-CD (catalytic peptidyl-prolyl isomerase domain, devoid of the PIN1 WW domain) (Homo sapiens, UniProt Q13526); test: Pin1 peptidyl-prolyl isomerase assay (protease-coupled, spectrophotometric); type: biochemical; conditions: catalytic PPIase domain without WW domain; 15° C., pH 7.5, 100 μM Suc-AEPF-pNA
T2 construct: PIN1 peptide containing the catalytic peptidyl-prolyl isomerase domain but devoid of the PIN1 WW domain
Source text: PIN1 is a phosphorylation dependent peptidyl-prolyl isomerase. The PIN1 assay is a spectrophotometric assay based on the coupled chymotrypsin or subtilisin catalyzed, cis-trans conformation dependent cleavage of a para-nitroanaline containing peptide substrate. […] Cleavage of the isomerized peptide releases para-nitroanaline, which can be monitored by an increase in absorbance at 390 nm. The PIN1 peptide substrate, succinyl-[…]-proline-phenylalanine-paranitroaniline (Suc-AEPF-pNA) (Bachem), is kept in a predominantly cis conformation with an anhydrous TFE/LiCl solvent mixture.
Upon dilution into an aqueous assay mixture containing PIN1, the peptide substrate undergoes PIN1 catalyzed isomerization to the trans conformation. […] To minimize the spontaneous isomerization of the peptide substrate, reactions are performed at 15° C. A typical reaction contains 25 mM MOPS pH 7.5, 0.5 mM TCEP, 2% DMSO, 5 μl of a 25 mg/ml solution of subtilisin Carlsberg, 50 nM PIN1-PPiase, and 100 μM Suc-AEPF-pNA peptide substrate. Reactions are cooled to 15° C. and initiated with the addition of Suc-AEPF-pNA. The absorbance at 390 nm is monitored continuously until all substrate has been converted to the cleaved product. […] The rate constant k is linearly proportional to the concentration of active enzyme present in the assay mixture once the rate constant for the spontaneous isomerization is subtracted. […] Therefore, during inhibition experiments, the IC50, for non-tight binding inhibitors, is essentially the inhibition constant Ki.
as §1

T1 sequence (Q13526 52-163 limits assumed): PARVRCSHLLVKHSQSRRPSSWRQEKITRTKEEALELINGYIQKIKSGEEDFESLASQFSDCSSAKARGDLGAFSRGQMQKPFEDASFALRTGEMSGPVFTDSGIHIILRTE
T2 sequence (Q13526 52-163 limits assumed): as above

Row | SMILES | Kd [1] | Ki [2]
1 | O=C(N[C@@H](COP(=O)(O)O)Cc1ccccc1)c1ccc2[nH]cnc2c1 [Example 25-23, Phosphoric acid mono-{(R)-2-[(1H-benzoimidazole-5-carbonyl)-amino]-3-phenyl-propyl}ester] | < 1000 nM | < 1000 nM
2 | CC(C)(C)C(=O)N[C@@H](COP(=O)(O)O)Cc1cccc(F)c1 [Example 25-30, Phosphoric acid mono-[(R)-2-(2,2dimethyl-propanoylamino)-3-(3-fluoro-phenyl)-propyl]ester] | < 1000 nM | < 1000 nM
